{"source": "patent US8124657B2", "about": "“Metallofullerols and their applications for preparation of medicine for inhibition of tumor growth” (Institute of High Energy Physics Chinese Academy of Sciences, priority 2005, dated 2012)", "key": {"H22 hepatoma": {"test_system": "H22 hepatoma", "test": "Antitumor activity on murine H22 hepatoma implanted subcutaneously in Kunming mice", "type": "in vivo", "details": "for Tumor Weight: mean±SEM", "procedure": "Antitumor studies of hydroxylated metallofullerene nanoparticles were performed on Kunming mice (female, adult, 4 weeks at the start of the experiment, body weight ranging from 20 to 22 g). The mice were subcutaneously implanted with 1×10^6 cells of H22 hepatoma (in 100 μl of saline) in each mouse at the right hind leg. Primary tumors (before administration of antitumor agents) were measured with calipers. The end point of the experiment was determined by the diameter of their leg loaded with tumor up to 2 or 2.2 centimeters. The size of tumor was monitored by daily measurement. Tumor growth curve was obtained by the diameter of the tumor as a function of the time.\nThe 40 mice of weight ranging from 20 to 22 g were randomly divided into 6 groups. The tumor-bearing mice were then systemically treated with hydroxylated metallofullerene nanoparticles saline solution by intraperitoneal injections once a day. Two doses of hydroxylated metallofullerene nanoparticles, 114 and 228 μg/kg corresponding to 1×10^−7 and 2×10^−7 mol/kg, respectively, were used in the experiment. The currently clinic antineoplastic agent CTX was used for the positive control, with a dose 30 mg/kg (1×10^−4 mol/kg, MW 279.1) of the currently clinic use for cancer therapy. Because of its side effects, treatments by 1×10^−4 and 5×10^−[…] of CTX continued for the first 7 days. Each mouse was administrated intraperitoneally (i.p.) a single dose of 0.2 ml per day from the second day of inoculation and continued to the day before sacrifice. The change of the tumor size was precisely measured every 24 hours.\nTable 1 is the tumor weights (mean±SEM, Table 1) from 5-7 mice in each group. FIG. 1 is the Inhibition curve of hepatoma growth in mice by treatment with metallofullerol nanoparticles in two independent experiments. The growth of tumor size was monitored through measuring the diameter of the tumor every 24 hours. Tumor volumes were then calculated according to the formula: V=4πr^3/3. Tumor growth curve was obtained by the diameter of the tumor."}, "[1]": {"test": "Serum liver and kidney function markers in H22 tumor-bearing mice", "type": "in vivo", "procedure": "In another aspect, the invention of hydrolated metallofullerene nanoparticles low toxicity in vivo. Liver function was evaluated with serum levels of total bilirubin levels (TBIL), alanine aminotransferase (ALT) and aspartate aminotransferase (AST). Nephrotoxicity was determined by blood urea nitrogen (BUN) and creatinine (Cr). For instance, the ALT levels of saline-treated groups are almost 4 times of the normal mean value. These indicate that implantation of H22 hepatoma itself in mice has harmed the functions of liver and kidney before treatments. […] After nanoparticle-treatment, the activities of ALT and AST (P<0.01) are reduced by 40% compared with saline control.\nTable 2 is the serum TBIL, ALT, AST, and creatinine levels in tumor-bearing mice associated with metallofullerol treatment."}, "[2]": {"test_system": "H22 hepatoma tumor tissues", "test": "HE staining of tumor tissues of H22 tumor-bearing mice", "type": "in vivo", "description": "The tumor morphology of HE staining of paraffin-embedded sections of tumor tissues in nanoparticle-treated, CTX-treated and the control groups, are shown in FIG. 9. In the saline control group, tumor cells heavily proliferated, arrayed regularly, and grievously invaded surrounding musculature (FIGS. 9A and B). […] When […] H22 liver tumors developed subcutaneously in mice, the envelope surrounding the neoplastic tissues, mainly composed of capillary vessels, fibrosis and lymphadenoid tissues were formed (FIG. 9C). […] In the [Gd@C82(OH)22]n-treated groups, lymphocyte hyperplasia (lymphopoiesis) and aggregated follicles around the transplanted tumor tissues were clearly seen (FIG. 9C). But in the CTX-treated mice, this envelope of fibroblasts associated with sporadic neutrophil cells was small so that it could not completely enclose the entire tumor tissues. Unlike in groups of the nanoparticle-treatment, the tumor invasion into surrounding normal muscle cells still existed in the CTX-treatment groups; although necrosis of tumor tissue was observed (FIGS. 9E and F)."}, "[3]": {"test_system": "MCF-7 human breast carcinoma"}, "[4]": {"details": "Dosage I (Low): CTX 5 × 10^−5 mol/kg/day i.p., n = 6"}, "[5]": {"details": "Dosage II (High): CTX 1 × 10^−4 mol/kg/day i.p., n = 11"}}, "note": "Marks after values point to notes of the source that are not given here.", "data": [{"compound": "O=P1(N(CCCl)CCCl)NCCCO1", "note": "(centres unmarked) [CTX]", "values": [{"measurement": "Inhibition Efficiency", "setting": "H22 hepatoma; [4]", "value": 52.0, "unit": "%"}, {"measurement": "Tumor Weight", "setting": "H22 hepatoma; [4]", "value": "1.80 ± 0.41", "unit": "g"}, {"measurement": "Inhibition Efficiency", "setting": "H22 hepatoma; [5]", "value": 67.5, "unit": "%"}, {"measurement": "Tumor Weight", "setting": "H22 hepatoma; [5]", "value": "1.22 ± 0.86", "unit": "g"}, {"measurement": "Change of serum ALT versus saline", "setting": "[1]; CTX-treated", "value": "not reduced, but even slightly increased"}, {"measurement": "Serum ALT", "setting": "[1]; high dose group", "value": "152.2 ± 71.5", "unit": "IU/L"}, {"measurement": "Serum AST", "setting": "[1]; high dose group", "value": "337 ± 53.7 ^a IU/L"}, {"measurement": "Serum Creatinine", "setting": "[1]; high dose group", "value": "51.0 ± 3.3", "unit": "µmol/L"}, {"measurement": "Serum TBIL", "setting": "[1]; high dose group", "value": "1.66 ± 0.59", "unit": "µmol/L"}, {"measurement": "Change of serum concentrations of TBIL, BUN and Cr", "setting": "[1]; i.p. injections", "value": "do not significantly changed"}, {"measurement": "Immune responses in tumor tissues (HE staining)", "setting": "[2]", "value": "not observed"}, {"measurement": "Tumor necrosis in HE-stained tumor sections", "setting": "[2]", "value": "evidently induced tumor necrosis"}, {"measurement": "Inhibition Efficiency", "setting": "[3]; CTX 71.6 μmol/kg/day, N = 10, nude mice", "value": 47.0, "unit": "%"}]}, {"compound": "CC(=O)O[C@H]1C(=O)[C@@]2(C)[C@H]([C@H](OC(=O)c3ccccc3)[C@]3(O)C[C@H](OC(=O)[C@H](O)[C@@H](NC(=O)c4ccccc4)c4ccccc4)C(C)=C1C3(C)C)[C@]1(OC(C)=O)CO[C@@H]1C[C@@H]2O", "note": "[Paclitaxel]", "values": [{"measurement": "Mortality of mice", "setting": "[3]; MCF-7 tumor-bearing nude mice under treatment", "value": 16.7, "unit": "%"}]}]}
